Results: PubChem BioAssay AID248 (DTP/NCI, 2004)
Several values for one entry are separate records, joined by “and”; a condition that tells them apart may be missing. Equal entries are not always repeated. Inconclusive results and toxic doses are left out. Cut-off read from the data, not from the text of the source: active = T/C of 150% or more; inactive = T/C below 125%.

System: L1210 leukemia ip in BDF1 mice, survival T/C
Assay: NCI In Vivo Anticancer Drug Screen. Data for tumor model L1210 Leukemia (intraperitoneal) in B6D2F1 (BDF1) mice
Settings: endpoint: mean survival time, higher = longer survival
Outline: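 Tumor was transplanted into mice, which were then dosed with test compound or vehicle alone. Survival was recorded for each group, and the treated figure was expressed relative to the control figure.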

[1] = dose: 100.0 mg/kg/injection, schedule: Q01DX001 (ip), vehicle: Klucel (hydroxypropylcellulose) (HPC)
[2] = dose: 100.0 mg/kg/injection, schedule: Q01DX009 (ip), vehicle: Klucel (hydroxypropylcellulose) (HPC)
[3] = dose: 100.0 mg/kg/injection, schedule: Q04DX003 (ip), vehicle: Klucel (hydroxypropylcellulose) (HPC)
[4] = dose: 200.0 mg/kg/injection, schedule: Q01DX001 (ip), vehicle: Klucel (hydroxypropylcellulose) (HPC)
[5] = dose: 200.0 mg/kg/injection, schedule: Q01DX009 (ip), vehicle: Klucel (hydroxypropylcellulose) (HPC)
[6] = dose: 200.0 mg/kg/injection, schedule: Q04DX003 (ip), vehicle: Klucel (hydroxypropylcellulose) (HPC)
[7] = dose: 400.0 mg/kg/injection, schedule: Q01DX001 (ip), vehicle: Klucel (hydroxypropylcellulose) (HPC)
[8] = dose: 400.0 mg/kg/injection, schedule: Q01DX009 (ip), vehicle: Klucel (hydroxypropylcellulose) (HPC)
[9] = dose: 400.0 mg/kg/injection, schedule: Q04DX003 (ip), vehicle: Klucel (hydroxypropylcellulose) (HPC)
[10] = dose: 100.0 mg/kg/injection, schedule: Q01DX001 (ip), vehicle: carboxymethylcellulose (CMC)
[11] = dose: 200.0 mg/kg/injection, schedule: Q01DX001 (ip), vehicle: carboxymethylcellulose (CMC)
[12] = dose: 400.0 mg/kg/injection, schedule: Q01DX001 (ip), vehicle: carboxymethylcellulose (CMC)
[13] = dose: 100.0 mg/kg/injection, schedule: Q04DX002 (ip), vehicle: Klucel (hydroxypropylcellulose) (HPC)
[14] = dose: 200.0 mg/kg/injection, schedule: Q04DX002 (ip), vehicle: Klucel (hydroxypropylcellulose) (HPC)
[15] = dose: 400.0 mg/kg/injection, schedule: Q04DX002 (ip), vehicle: Klucel (hydroxypropylcellulose) (HPC)
[16] = dose: 100.0 mg/kg/injection, schedule: Q01DX001 (ip), vehicle: saline
[17] = dose: 200.0 mg/kg/injection, schedule: Q01DX001 (ip), vehicle: saline
[18] = dose: 400.0 mg/kg/injection, schedule: Q01DX001 (ip), vehicle: saline
[19] = dose: 50.0 mg/kg/injection, schedule: Q04DX003 (ip), vehicle: Klucel (hydroxypropylcellulose) (HPC)
[20] = dose: 75.0 mg/kg/injection, schedule: Q01DX001 (ip), vehicle: other
[21] = dose: 150.0 mg/kg/injection, schedule: Q01DX001 (ip), vehicle: other
[22] = dose: 300.0 mg/kg/injection, schedule: Q01DX001 (ip), vehicle: other

Measured: T/C

Cc1ncc(C(C)(O)c2ccc(Cl)cc2)n1Cc1ccccc1 (centres undefined)
inactive: [1] 112 % of control | [2] 92 % of control | [3] 92 % of control | [4] 98 % of control | [5] 89 % of control | [6] 88 % of control | [7] 118 % of control | [8] 92 % of control | [9] 92 % of control

O=[N+]([O-])c1c(Cl)cc(Cl)c([N+](=O)[O-])c1-c1ccccc1
inactive: [10] 96 % of control | [11] 96 % of control | [12] 107 % of control

Nc1nnnn1-c1ccccc1
inactive: [13] 102 % of control | [14] 102 % of control | [15] 91 % of control

O=C(C(=Nc1ccc(Br)cc1)C(Nc1ccc(Br)cc1)C(=O)c1ccccc1)c1ccccc1 (centres undefined)
inactive: [16] 96 % of control | [17] 91 % of control | [18] 94 % of control

Cc1ccc(S(=O)(=O)OC(CO)C(O)C(O)C(CO)OS(=O)(=O)c2ccc(C)cc2)cc1 (centres undefined) (tested in a mixture with another compound)
inactive: [13] 86 % of control | [14] 101 % of control | [15] 93 % of control

CC(=O)Nc1cc2c(cc1[N+](=O)[O-])-c1ccc(F)cc1C2=O
inactive: [10] 100 % of control | [11] 96 % of control | [12] 99 % of control

O=C(Nc1ccc2ncccc2c1)Nc1ccc2ncccc2c1
inactive: dose: 50.0 mg/kg/injection, schedule: Q01DX009 (ip), vehicle: Klucel (hydroxypropylcellulose) (HPC) 90 % of control | [19] 89 % of control | [2] 93 % of control | [5] 93 % of control | [6] 86 % of control

CC[N+](C)(C)CCCOC(=O)C1C2CC3CC(C2)CC1C3 (centres undefined)
inactive: dose: 25.0 mg/kg/injection, schedule: Q04DX002 (ip), vehicle: saline 88 % of control | dose: 50.0 mg/kg/injection, schedule: Q04DX002 (ip), vehicle: saline 98 % of control

C=CCOCC(C)OC(=O)C(C)C (centres undefined)
inactive: [16] 107 % of control | [17] 94 % of control | [18] 90 % of control

CCOC(=O)c1cnc(SC)nc1Nc1cccc(Cl)c1
inactive: [2] 97 % of control | [3] 90 % of control | [6] 92 % of control | [8] 90 % of control | [9] 88 % of control

Nc1cc(N)c2cccnc2c1O
inactive: dose: 2.0 mg/kg/injection, schedule: Q01DX015 (ip), vehicle: saline 101 % of control | dose: 4.0 mg/kg/injection, schedule: Q01DX015 (ip), vehicle: saline 101 % of control

CCOP(=S)(N/N=C1/C2(C)CCC(C2)C1(C)C)OCC (centres undefined)
inactive: [16] 97 % of control | [17] 97 % of control | [18] 91 % of control

CCN(CC)/N=C/CC(C)Nc1ccnc2cc(Cl)ccc12 (centres undefined)
inactive: dose: 3.12 mg/kg/injection, schedule: Q01DX009 (ip), vehicle: acetone 92 % of control | dose: 6.25 mg/kg/injection, schedule: Q01DX009 (ip), vehicle: acetone 97 % of control | dose: 12.5 mg/kg/injection, schedule: Q04DX003 (ip), vehicle: saline 93 % of control

O=C(O)CCSCc1cc(=O)[nH]c(=O)[nH]1
inactive: dose: 100.0 mg/kg/injection, schedule: Q04DX003 (ip), vehicle: saline 96 % of control | dose: 200.0 mg/kg/injection, schedule: Q04DX003 (ip), vehicle: saline 98 % of control | dose: 400.0 mg/kg/injection, schedule: Q04DX003 (ip), vehicle: saline 96 % of control

O=S(=O)(O)c1ccc(CCCCCCCCCl)cc1
inactive: dose: 100.0 mg/kg/injection, schedule: Q04DX002 (ip), vehicle: saline 87 % of control | dose: 200.0 mg/kg/injection, schedule: Q04DX002 (ip), vehicle: saline 93 % of control

COc1ccc(CN2CCCN(Cc3ccc(OC)cc3OC)C2c2ccc(N(CCCl)CCCl)cc2)c(OC)c1
inactive: dose: 50.0 mg/kg/injection, schedule: Q01DX001 (ip), vehicle: carboxymethylcellulose (CMC) 106 % of control | [10] 101 % of control | [11] 115 % of control | [12] 106 % of control

C/C=C/c1ccc2ccccc2c1
inactive: [10] 104 % of control | [11] 96 % of control | [12] 104 % of control

O=C1c2ccccc2C(=O)N1c1ccc(Br)cc1
inactive: [1] 101 % of control | [4] 104 % of control | [7] 104 % of control

CCC(C)NC1=CC(=O)c2ccccc2C1=O (centres undefined)
inactive: dose: 100.0 mg/kg/injection, schedule: Q01DX001 (ip), vehicle: saline with Tween-80 95 % of control | dose: 200.0 mg/kg/injection, schedule: Q01DX001 (ip), vehicle: saline with Tween-80 94 % of control

CC(OC(=O)Oc1ccccc1)c1ccccc1 (centres undefined)
inactive: [3] 98 % of control | [6] 107 % of control | [9] 98 % of control

COC(=O)C(Cc1ccccc1)NC(=O)C(C)NC(=O)OCc1ccccc1 (centres undefined)
inactive: [13] 105 % of control | dose: 130.0 mg/kg/injection, schedule: Q04DX002 (ip), vehicle: Klucel (hydroxypropylcellulose) (HPC) 100 % of control and 86 % of control | [14] 100 % of control | dose: 300.0 mg/kg/injection, schedule: Q04DX002 (ip), vehicle: Klucel (hydroxypropylcellulose) (HPC) 100 % of control and 103 % of control | [15] 108 % of control

CC(=O)Oc1c2ccccc2c2c3c(cccc13)C(=O)O2
inactive: [1] 95 % of control | [4] 95 % of control | [7] 95 % of control

CCOC(=O)C(C#N)C(C(C)=O)C(=O)OCC (centres undefined)
inactive: dose: 25.0 mg/kg/injection, schedule: Q01DX009 (ip), vehicle: saline sonified 120 % of control | dose: 50.0 mg/kg/injection, schedule: Q01DX009 (ip), vehicle: saline sonified 124 % of control | [20] 94 % of control | dose: 100.0 mg/kg/injection, schedule: Q01DX009 (ip), vehicle: saline sonified 104 % of control | dose: 100.0 mg/kg/injection, schedule: Q04DX003 (ip), vehicle: saline sonified 110 % of control | [21] 102 % of control | [22] 100 % of control

CCOP(=O)(OCC)C1CC(C(C)C)CCC1C (centres undefined)
inactive: [20] 93 % of control | [21] 98 % of control | [22] 110 % of control

O=C1NC(=O)C(c2ccccc2)(C2CC2)N1 (centres undefined)
inactive: [19] 107 % of control | [16] 93 % of control | [3] 95 % of control | [17] 93 % of control | [6] 101 % of control | [18] 98 % of control

CSc1ncc(Br)c(Cl)n1
inactive: dose: 5.0 mg/kg/injection, schedule: Q01DX001 (ip), vehicle: carboxymethylcellulose (CMC) 95 % of control | dose: 10.0 mg/kg/injection, schedule: Q01DX001 (ip), vehicle: carboxymethylcellulose (CMC) 98 % of control | dose: 20.0 mg/kg/injection, schedule: Q01DX001 (ip), vehicle: carboxymethylcellulose (CMC) 95 % of control | dose: 40.0 mg/kg/injection, schedule: Q01DX001 (ip), vehicle: carboxymethylcellulose (CMC) 93 % of control | dose: 80.0 mg/kg/injection, schedule: Q01DX001 (ip), vehicle: carboxymethylcellulose (CMC) 93 % of control

NC(=O)NC(=O)c1nc2ccccc2[nH]c1=O
inactive: [13] 95 % of control | [14] 95 % of control | [15] 100 % of control

CC(C)C(C)C(N)C(=O)O (centres undefined)
inactive: dose: 100.0 mg/kg/injection, schedule: Q01DX001 (ip), vehicle: other 101 % of control | dose: 200.0 mg/kg/injection, schedule: Q01DX001 (ip), vehicle: other 95 % of control | dose: 400.0 mg/kg/injection, schedule: Q01DX001 (ip), vehicle: other 106 % of control

CC(C)CC(N)C(=O)CCl (centres undefined)
inactive: dose: 25.0 mg/kg/injection, schedule: Q04DX002 (ip), vehicle: Klucel (hydroxypropylcellulose) (HPC) 108 % of control | dose: 50.0 mg/kg/injection, schedule: Q04DX002 (ip), vehicle: Klucel (hydroxypropylcellulose) (HPC) 102 % of control
